Data from US20160175223A1, “ANTI-AGING COMPOSITIONS COMPRISING BILE ACID-FATTY ACID CONJUGATES” (GALDERM THERAPEUTICS LTD., priority 2013, published 2016).

What was measured:
human skin fibroblasts = assay: [3H] cholesterol efflux in skin fibroblasts; format: cell-based; details: 20 hours incubation, compared to untreated cells
Experimental: (§1) Steamchol was incubated with human skin fibroblasts for 20 hours to measure cholesterol loading in the presence of [^3H] cholesterol. After series of washing and adding efflux containing cholesterol acceptors, medium was collected and centrifuged and cell associated cholesterol was compared to effluxed cholesterol in the presence and absence of the similar FABAC. This research project also included quantification of mRNA of ABCA1 and direct measurement of ABCA1.
(§2) Similarly, cells were pre-incubated with [^3H] cholesterol, washed four times and then placed in an incubation medium with or without Aramchol for 20 hours. Following the incubation, radioactivity was measured separately in the medium and in the cells. Cholesterol efflux percentage was calculated as radioactivity in medium divided by the total radioactivity (cells+medium).

ABCA1 [1] = assay: Direct measurement of ABCA1 protein in skin fibroblasts; format: cell-based, human; details: efflux in the presence of FABAC, compared to untreated cells
Experimental: as §1, §2

ABCA1 [2] = assay: Taqman gene expression in Epiderm FT skin culture: ABCA1 mRNA; format: cell-based, human; details: 0.5% (5000 ug/mL) in DMSO, 24 hours post-application, vs DMSO control
Experimental: A full-thickness in vitro skin culture model, Epiderm FT (MatTek, MA), was treated with Steamchol. Steamchol in DMSO (0.5%, 5000 ug/mL) was applied to the surface of each test culture and cells were collected 24 hours post-application. Control cells were similarly treated with DMSO without Steamchol.
Tissues were collected in RNA later for gene expression analysis. Gene expression was analyzed using validated Taqman gene expression assays in Taqman Low Density Array (TLDA) format. 94 genes that regulate a variety of known functions in skin were analyzed including the ABCA1 and SCD1 genes. The experimental set up was conducted in a 96-well format using validated Taqman gene expression assays. Each gene was assayed in duplicates. Statistics were carried out using the StatMiner software v4.2 (unpaired t-tests, p≦0.05, N=4) to compare the Steamchol group to the DMSO control group.

[3] = tested on: Full-thickness Epiderm cultures (EFT-400, MatTek); assay: Cytotoxicity assay (MTT) after topical application to full-thickness skin cultures; format: cell-based; details: 24-hour exposure; for Cell Viability: 10 μL topical, MTT, vs untreated control
Experimental: (§3) Full-thickness Epiderm cultures (EFT-400, MatTek) were used to determine toxicity in response to topical application of a test material (Steamchol).
The test material was provided as a powder. Test solutions were prepared by adding the appropriate amount of powdered material to 1 mL DMSO. Lower concentrations were made by serial dilution with 100% DMSO. The final test material concentrations and treatments are listed below: • 2% Steamchol (20,000 ug/mL) • 1% Steamchol (10,000 ug/mL) • 0.1% Steamchol (1000 ug/mL) • 0.01% Steamchol (100 ug/mL) • vehicle control (100% DMSO) • untreated control
Full-thickness skin cultures (EFT-400) were maintained as required to ensure viability; the cultures were equilibrated at 37° C. and 5% CO2 for 24 hours prior to application of test materials. Test material was applied to the surface of each culture using sterile techniques (10 μL applied to each culture). Two cultures were assigned to each treatment group. Two EFT cultures served as an untreated control (also referred to as negative control in FIG. 2), and two other EFT cultures served as a positive control (100 μL 1% Triton X-100).
Following a 24-hour incubation period with the test material, cultures were processed for cell toxicity analysis using an MTT [(3-4,5-dimethylthiazole-2-yl)2,5-diphenyltetrazoliumbromide] assay (reagents purchased from MatTek). Viable tissues converted MTT into a blue formazan salt that was detected by measuring absorbance at a specific wavelength of light (A570). Percent viability was calculated by comparing the A570 reading of the test cultures to the A570 of the untreated control culture, using the following formula: [Treated A570/Untreated A570]*100.

[4] = tested on: Full-thickness Epiderm cultures (EFT-400, MatTek); assay: Previous viability assay; format: cell-based; details: concentrations of 40.0, 13.3, 4.4, 1.5 ug/mL
From the text: as §3

SMILES | Cholesterol efflux in fibroblasts (human skin fibroblasts) | ABCA1 protein concentration increase (ABCA1 [1]) | Change in mRNA levels of ABCA1 (ABCA1 [2]) | Cell Viability ([3]; 0.01% Steamchol (100 ug/mL) in DMSO) | Cell Viability ([3]; 0.1% Steamchol (1000 ug/mL) in DMSO) | Cell Viability ([3]; 1% Steamchol (10,000 ug/mL) in DMSO) | Cell Viability ([3]; 2% Steamchol (20,000 ug/mL) in DMSO) | Cell viability compared to the untreated control ([3]; all dilutions tested (0.01%-2% in DMSO)) | Toxicity in viability assay [4]
CCCCCCCCCCCCCCCCCCCC(=O)N[C@H]1CC[C@@]2(C)[C@@H](C1)C[C@@H](O)[C@@H]1[C@@H]2C[C@H](O)[C@]2(C)[C@@H]([C@H](C)CCC(=O)O)CC[C@@H]12 [Aramchol, 3β-arachidylamido-7α,12α, dihidroxy-5β-cholan-24-oic acid] | significantly enhanced | approximately 2 fold |  |  |  |  |  |  | 
CCCCCCCCCCCCCCCCCC(=O)N[C@H]1CC[C@@]2(C)[C@@H](C1)C[C@@H](O)[C@@H]1[C@@H]2C[C@H](O)[C@]2(C)[C@@H]([C@H](C)CCC(=O)O)CC[C@@H]12 [Steamchol, 3β-stearylamido-7α,12α, dihidroxy-5β-cholan-24-oic acid] | significantly enhanced | approximately 2 fold | No significant change | 100.41% | 99.98% | 96.88% | 93.89% | ~100% | no toxicity was observed
